Where “and” joins values, the source holds several entries; their conditions need not be identical. Identical values can stand only once. Like-named read-outs stand apart in the source and are kept apart here.
Experiments:
[1] = test system: NMDA-R; settings: cited from earlier work
[2] = target: ion channel of NMDA-R; design: method as in PMID 25648682; settings: preclinical; read-out: apparent affinity against [^3H]MK-801 (Ki); cited from earlier work
[3] = test system: ion channel binding site of NMDA receptors; assay: [^18F]PK-209 brain PET, test–retest and kinetic modeling; assay type: in vivo, human; settings: for K i: net influx rate, individual subjects S1–S5
Procedure: In total, 20 PET scans were acquired on a Gemini TF-64 PET/CT scanner (Philips Medical Systems, Cleveland, OH, USA). Five subjects underwent [^18F]PK-209 test–retest (TRT) scans 31–61 days apart over a period of 211 days. Another five subjects underwent baseline and ketamine scans 13–161 days apart over a period of 258 days. At the start of each scan [^18F]PK-209 was injected as an intravenous bolus with a mean injected activity of 187 ± 7 MBq. All scans were performed between 12:00 and 15:00 h to minimize diurnal variation. Duration of daylight on each scan day was calculated to investigate seasonal changes in tracer binding. Dynamic PET data were acquired for 120 min and binned into 25 time frames (1 × 15, 3 × 5, 3 × 10, 4 × 60, 2 × 150, 2 × 300, 10 × 600 s). PET was followed by a low-dose CT (30 mAs, 120 kVp) for attenuation correction and localization. Data were reconstructed using a three-dimensional row action maximum likelihood reconstruction algorithm (3-D RAMLA). Acquired PET data were normalized and corrected for dead time, randoms, scatter, attenuation, and decay.
Prior to the PET studies, structural three-dimensional coronal T1-weighted magnetic resonance images (MRI) were acquired for all subjects on a 1.5T Sonata scanner (Siemens Medical Solutions, Erlangen, Germany) with 160 coronal slices using echo time 3.97 ms, repetition time 2700 ms, flip angle 8°, and voxel size 1.0 × 1.5 × 1.0 mm^3. Subject motion was checked by visual inspection of the alignment of intrasubject PET frames, and no frames were excluded due to excessive movement. T1-weighted MRI scans were co-registered to an average of the PET frames from ~ 4–70 min p.i. using VINCI software. The co-registered MRI scans were segmented into gray matter (GM), white matter, and extra-cerebral fluid, using PVE-lab. Subsequently, 68 regions of interest (ROIs), including whole brain, were derived from the Hammers atlas and used to extract GM time-activity curves (TACs). As a last step, the TACs of 60 out of the 67 ROIs were redefined into nine volume-weighted ROIs by combining the radioactivity at each timepoint according to the equation Bq¯=∑iαi×Bqi/∑iαi , where αi is the volume (in mm^3) of region i, and Bqi the counts per mm^3 of region i. The selection of ROIs was based on the widespread NMDA-R availability in the brain: frontal, temporal, occipital, and parietal cortices; hippocampus; thalamus; insula; brainstem; dorsal striatum; and cerebellum, as well as whole brain GM from the Hammers atlas. Standardized uptake values (SUV; equalling measured activity divided by injected dose per body weight) were calculated for whole brain GM.
Using the metabolite-corrected arterial plasma input function, all GM TACs were fitted to single-tissue (1T2k), two-tissue irreversible (2T3k), and reversible (2T4k) compartmental models, both with and without an additional parameter for fractional blood volume (VB). The non-metabolite-corrected arterial whole blood curve was used as input function for VB. The optimal tracer kinetic model for describing in vivo kinetics of [^18F]PK-209 was determined according to the Akaike Information Criterion (AIC). Depending on the model preference, outcome measures were the net influx constant (Ki = K1 k3/(k2 + k3)) or the distribution volume (VT=K1/k2(1+k3/k4)) . For subsequent group level analysis (e.g., TRT variability and ketamine effects), all scans were analyzed using the same, most preferred, tracer kinetic model. Non-displaceable distribution volumes (VND = K1/k2) as well as K1 and k3 values are also reported separately.
The absolute percentage TRT variability of kinetic parameters between test and retest scans was calculated using the equation TRT variability = 2 · (ρretest − ρtest)/(ρtest + ρretest) · 100, where ρ is the kinetic parameter of interest. The between-subject coefficient of variation was calculated as the standard deviation divided by the sample mean · 100. […]

[4] = ex vivo rodent, cited from earlier work

Compound: CSc1ccc(Cl)c(NC(=N)N(C)c2cccc(OC[18F])c2)c1 [[^18F]PK-209, 3-(2-chloro-5-(methylthio)phenyl)-1-(3-([^18F]fluoromethoxy)phenyl)-1-methylguanidine]
- reduction in mean SUVAUC after MK-801 administration ([1]; non-human primate): 15%
- volume of distribution (VT) compared with baseline ([1]; rhesus monkeys, IV 0.3 mg ∙ kg^−1 MK-801 30 min before PET): reduced the volume of distribution (VT) compared with baseline in two out of three subjects
- retention in NMDA-R-rich cortical regions relative to the cerebellum ([1]; rhesus monkeys): prolonged retention
- K i [2]: 18 nM
- Mean test K i ([3]; 2T3k_VB, population IF): 0.0152 min⁻¹
- Mean retest K i ([3]; 2T3k_VB, single scan IF): 0.0143 min⁻¹
- Mean test K i ([3]; 2T3k_VB, single scan IF): 0.0183 min⁻¹
- Mean retest K 1 ([3]; human, in vivo): 0.426 mL · cm^3 · min^−1
- Mean retest V ND ([3]; human, in vivo): 7.34
- Mean retest k 3 ([3]; human, in vivo): 0.0021 min⁻¹
- Mean test K 1 ([3]; human, in vivo): 0.473 mL · cm^3 · min^−1
- Mean test K i ([3]; human, in vivo): 0.0161 min⁻¹
- Mean test V ND ([3]; human, in vivo): 9.09
- Mean test k 3 ([3]; human, in vivo): 0.0021 min⁻¹
- peak uptake SUV ([3]; human, in vivo): 3.6-5.7
- time of peak uptake ([3]; human, in vivo): around 10 min
- whole brain SUV90–120 ([3]; human, in vivo): 1.64
- brain activity as % of the peak ([3]; human, in vivo, 120 min): 25-40%
- defluorination (radioactivity uptake in jaw and skull) ([3]; in vivo): no defluorination
- K i ([3]; 2T3k_VB, population IF, retest scan): 0.0201 min⁻¹
- K i ([3]; 2T3k_VB, population IF, test scan): 0.0147 min⁻¹ and 0.0193 min⁻¹
- K i ([3]; 2T3k_VB, single scan IF, retest scan): 0.0182 min⁻¹ and 0.0152 min⁻¹
- K i ([3]; 2T3k_VB, within-subject IF, retest scan): 0.0162 min⁻¹
- K i ([3]; 2T3k_VB, within-subject IF, test scan): 0.0118 min⁻¹
- whole brain SUV90–120 ([3]; test scans, average): 1.68
- non-polar metabolite fraction in brain ([4]; 15 min p.i.): 18%
- non-polar metabolite fraction in brain ([4]; 60 min p.i.): 25%
- polar metabolites, contribution to total brain radioactivity ([4]; 60 min p.i.): 4%
